Reference: PMC3083694, “Effects of Intermediates between Vitamins K2 and K3 on Mammalian DNA Polymerase Inhibition and Anti-Inflammatory Activity” (International Journal of Molecular Sciences, 2011)

Columns and labels:
Calf DNA polymerase α = biological target: T1, Calf DNA polymerase α (Bos taurus, UniProt A0AAA9TD94); test: DNA polymerase activity assay, calf pol α; format: biochemical; conditions: for Inhibitory effect on calf pol α activity: 50 μM of each compound, Figure 2
T1 construct: made in house
T1 sequence (A0AAA9TD94 1-1441): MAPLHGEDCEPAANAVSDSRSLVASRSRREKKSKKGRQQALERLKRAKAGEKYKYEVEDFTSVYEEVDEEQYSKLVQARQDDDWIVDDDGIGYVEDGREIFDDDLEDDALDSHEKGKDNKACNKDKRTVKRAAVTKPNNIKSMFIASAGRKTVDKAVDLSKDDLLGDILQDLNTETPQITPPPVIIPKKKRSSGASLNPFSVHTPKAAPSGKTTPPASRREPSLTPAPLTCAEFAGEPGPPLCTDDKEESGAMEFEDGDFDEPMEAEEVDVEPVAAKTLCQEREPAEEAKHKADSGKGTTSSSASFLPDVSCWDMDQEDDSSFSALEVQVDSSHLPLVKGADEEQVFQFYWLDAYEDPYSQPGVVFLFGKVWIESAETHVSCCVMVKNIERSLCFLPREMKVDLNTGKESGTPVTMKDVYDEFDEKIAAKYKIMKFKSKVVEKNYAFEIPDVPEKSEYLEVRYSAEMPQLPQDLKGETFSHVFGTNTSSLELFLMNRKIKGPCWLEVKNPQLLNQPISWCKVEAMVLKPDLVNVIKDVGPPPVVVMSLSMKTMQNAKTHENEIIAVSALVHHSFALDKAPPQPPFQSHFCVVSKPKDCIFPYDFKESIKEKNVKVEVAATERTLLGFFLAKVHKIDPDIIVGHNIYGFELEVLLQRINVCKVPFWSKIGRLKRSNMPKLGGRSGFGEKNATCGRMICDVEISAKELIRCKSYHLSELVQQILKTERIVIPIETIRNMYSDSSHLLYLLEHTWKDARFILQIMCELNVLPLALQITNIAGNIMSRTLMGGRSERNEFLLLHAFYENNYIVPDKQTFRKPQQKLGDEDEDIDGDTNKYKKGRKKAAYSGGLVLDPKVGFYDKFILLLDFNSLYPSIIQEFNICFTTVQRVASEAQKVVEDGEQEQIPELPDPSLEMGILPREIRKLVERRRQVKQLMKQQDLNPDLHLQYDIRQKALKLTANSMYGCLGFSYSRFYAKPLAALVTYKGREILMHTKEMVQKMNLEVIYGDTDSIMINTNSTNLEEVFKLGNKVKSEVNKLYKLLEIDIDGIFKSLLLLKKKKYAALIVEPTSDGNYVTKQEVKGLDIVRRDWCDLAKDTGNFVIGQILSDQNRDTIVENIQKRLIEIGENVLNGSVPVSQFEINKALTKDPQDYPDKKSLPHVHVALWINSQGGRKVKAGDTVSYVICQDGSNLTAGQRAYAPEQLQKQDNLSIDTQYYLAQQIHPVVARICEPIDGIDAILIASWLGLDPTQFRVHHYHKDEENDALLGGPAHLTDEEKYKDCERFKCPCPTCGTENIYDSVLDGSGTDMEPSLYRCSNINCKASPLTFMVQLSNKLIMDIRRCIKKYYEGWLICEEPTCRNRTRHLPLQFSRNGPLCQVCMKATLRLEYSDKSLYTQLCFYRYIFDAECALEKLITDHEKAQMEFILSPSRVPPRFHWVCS
Method: Pols from mammals, a fish (cherry salmon), an insect (fruit fly) and a plant (cauliflower) were purified, and prokaryotic pols and other DNA metabolic enzymes, such as T7 RNA polymerase, T4 polynucleotide kinase and bovine deoxyribonuclease I, were purchased as described in our previous report. The activities of all pols and other DNA metabolic enzymes were measured as described in previous reports.
The components of the pol assay were poly(dA)/oligo(dT)18 and dTTP as the DNA template-primer and 2′-deoxyribonucleoside 5′-triphosphate (dNTP) substrate, respectively. VK2, VK3, and their synthesized derivatives (i.e., MK-3, MK-2 and MK-1) were dissolved in dimethyl sulfoxide (DMSO) at various concentrations and sonicated for 30 s. The sonicated samples (4 μL) were mixed with 16 μL of each pol enzyme (final amount, 0.05 units) in 50 mM Tris-HCl (pH 7.5) containing 1 mM dithiothreitol, 50% glycerol and 0.1 mM EDTA, and kept at 0 °C for 10 min. These inhibitor–enzyme mixtures (8 μL) were added to 16 μL of each standard enzyme reaction mixture (50 mM Tris-HCl [pH 7.5], 1 mM dithiothreitol, 1 mM MgCl2, 15% glycerol, 10 μM poly(dA)/oligo(dT)18 and 10 μM [^3H]-dTTP), and incubation was carried out at 37 °C for 60 min, except for Taq pol, which was incubated at 74 °C for 60 min. Activity without the inhibitor was considered to be 100%, and the activity remaining at each concentration of inhibitor was determined relative to this value. One unit of pol activity was defined as the amount of enzyme that catalyzed the incorporation of 1 nmol dNTP (dTTP) into the synthetic DNA template-primer (poly(dA)/oligo(dT)18, A/T = 2/1) in 60 min at 37 °C under normal reaction conditions for each enzyme (scintillation counts: approximately 1 pmol of incorporated radioactive nucleotides = 100 cpm).

[1] = tested on: LPS-induced production of TNF-α in RAW264.7 cells; test: LPS-induced TNF-α production in mouse macrophages (ELISA); format: cell-based; conditions: Figure 4; for Inhibitory effect on LPS-stimulated TNF-α production: 10 and 50 μM tested, concentration not specified; for Suppression of LPS-stimulated production of TNF-α: then 100 ng/mL LPS 24 h
Method: A mouse macrophage cell line, RAW264.7, was obtained from American Type Culture Collection (ATCC) (Manassas, VA, U.S.). The cells were cultured in Eagle’s Minimum Essential Medium (MEM) supplemented with 4.5 g of glucose per liter plus 10% fetal calf serum, 5 mM L-glutamine, 50 units/mL penicillin and 50 units/mL streptomycin. The cells were cultured at 37 °C in standard medium in a humidified atmosphere of 5% CO2–95% air.
RAW264.7 cells were placed in a 12-well plate at 5 × 10^4 cells/well and incubated for 24 h. The cells were pretreated with the VK2 and VK3 intermediates (final concentrations of 10 and 50 μM) for 30 min before the addition of 100 ng/mL of LPS. After stimulation with LPS for 24 h, the cell culture medium was collected to measure the amount of TNF-α secreted. The concentration of TNF-α in the culture medium was quantified by using a commercially available enzyme-linked immunosorbent assay (ELISA) development system (Bay Bioscience Co., Ltd., Kobe, Japan) in accordance with the manufacturer’s protocol.

For `CC(C)=CCC/C(C)=C/CC/C(C)=C/CC1=C(C)C(=O)c2ccccc2C1=O` [MK-3], the “Inhibitory effect on calf pol α activity” value (Calf DNA polymerase α) was “inhibited the activity” and the “Inhibitory effect on LPS-stimulated TNF-α production” value [1] was “moderate inhibitory effect”.

In the case of `CC(C)=CCC1=C(C)C(=O)c2ccccc2C1=O` [MK-1], the “Inhibitory effect on calf pol α activity” value (Calf DNA polymerase α) is reported as “inhibited the activity” and the “Suppression of LPS-stimulated production of TNF-α” value (from here on “Suppression”) ([1]; 50 μM compound 30 min) is reported as “significantly suppressed”.

For `CC(C)=CCC/C(C)=C/CC/C(C)=C/CC/C(C)=C/CC1=C(C)C(=O)c2ccccc2C1=O` [MK-4, menaquinone 4, reference compound], the “Inhibitory effect on calf pol α activity” value (Calf DNA polymerase α) was “had no effect on pol activity” and the “Inhibitory effect on LPS-stimulated TNF-α production” value [1] was “moderate inhibitory effect”.

In the case of `CC(C)=CCC/C(C)=C/CC1=C(C)C(=O)c2ccccc2C1=O` [MK-2], the “Inhibitory effect on calf pol α activity” value (Calf DNA polymerase α) is reported as “inhibited the activity”, the IC50 (Calf DNA polymerase α; B-family pol, read-out: IC50 Value of MK-2, Calf DNA polymerase α) is reported as 27.6 ± 1.6 µM and the “Suppression” value ([1]; 10 μM compound 30 min) is reported as “significantly suppressed”. The “Suppression” value ([1]; 50 μM compound 30 min) was “significantly suppressed”.
